# Laboratory results: patent publication US20120115877A1, “Facially Amphiphilic Compounds, Compositions, And Uses Thereof In Treating Cancer” (POLYMEDIX, INC., priority 2010, published 2012)
# How the values were obtained:
# human red blood cells = assay: Lysis of human red blood cells (HC50); assay type: cell-based
# MCF-7 (ATCC HTB-22) = assay: XTT cell viability assay, growth inhibition; assay type: cell-based, human
# Experimental: (§1) Compound A was tested against two human breast cancer cell lines, MCF-7 (ATCC HTB-22) and TMX2-28, and one non-tumorigenic breast cell line, MCF-10A (ATCC CRL-10317). MCF-7 and TMX2-28 cells were grown in DC5 cell growth media while the MCF-10A cells were grown in MEGM, both supplemented with 5% bovine growth serum. The cells were grown using standard techniques. Cell cultures at 50% confluence were harvested with trypsin, seeded onto sterile 96 well plates at a density of 10,000 cells/well and allowed to grow overnight to 50% confluence. Compound A was then added to the growth medium and allowed to further incubate for 48 hours. Viable cells were quantitated using an XTT assay (purchased from Roche).
# TMX2-28 = assay: XTT cell viability assay, growth inhibition; assay type: cell-based, human
# Experimental: as §1
# MCF-10A (ATCC CRL-10317) = assay: XTT cell viability assay, growth inhibition; assay type: cell-based; details: Homo sapiens, MCF10A, non-tumorigenic, 48 hours incubation
# Experimental: as §1
# RPMI-8226 = assay: NCI-60 screen, Leukemia; assay type: cell-based, human; details: 10 μM
# Experimental: (§2) Several compounds were tested at single concentrations (10 μM) against 59 different human tumor cell lines, representing leukemia, melanoma and cancers of the lung, colon, brain, ovary, breast, prostate, and kidney (see, Table 3). The human tumor cell lines of the cancer screening panel were grown in RPMI 1640 medium containing 5% fetal bovine serum and 2 mM L-glutamine. For a typical screening experiment, cells were inoculated into 96 well microtiter plates in 100 μL at plating densities ranging from 5,000 to 40,000 cells/well depending on the doubling time of individual cell lines. After cell inoculation, the microtiter plates were incubated at 37° C., 5% CO2, 95% air and 100% relative humidity for 24 hours prior to addition of the compounds.
# (§3) After 24 hours, two plates of each cell line were fixed in situ with TCA, to represent a measurement of the cell population for each cell line at the time of drug addition (Tz). Compounds were solubilized in dimethyl sulfoxide at 400-fold the desired final maximum test concentration and stored frozen prior to use. At the time of drug addition, an aliquot of frozen concentrate was thawed and diluted to twice the desired final maximum test concentration with complete medium containing 50 μg/ml gentamicin. Additional four, 10-fold or ½ log serial dilutions were made to provide a total of five compound concentrations plus control. Aliquots of 100 μl of these different drug dilutions were added to the appropriate microtiter wells already containing 100 μl of medium, resulting in the required final compound concentrations.
# (§4) Following drug addition, the plates were incubated for an additional 48 hours at 37° C., 5% CO2, 95% air, and 100% relative humidity. For adherent cells, the assay was terminated by the addition of cold TCA. Cells were fixed in situ by the gentle addition of 50 μl of cold 50% (w/v) TCA (final concentration, 10% TCA) and incubated for 60 minutes at 4° C. The supernatant was discarded, and the plates were washed five times with tap water and air dried. Sulforhodamine B (SRB) solution (100 μl) at 0.4% (w/v) in 1% acetic acid was added to each well, and plates were incubated for 10 minutes at room temperature. After staining, unbound dye was removed by washing five times with 1% acetic acid and the plates were air dried. Bound stain was subsequently solubilized with 10 mM trizma base, and the absorbance was read on an automated plate reader at a wavelength of 515 nm. For suspension cells, the methodology was the same except that the assay was terminated by fixing settled cells at the bottom of the wells by gently adding 50 μl of 80% TCA (final concentration, 16% TCA). Using the seven absorbance measurements (time zero, (Tz), control growth, (C), and test growth in the presence of drug at the five concentration levels (Ti)), the percentage growth was calculated at each of the compound concentrations levels. Percentage growth inhibition was calculated as:
# (§5) [(Ti−Tz)/(C−Tz)]×100 for concentrations for which Ti>/=Tz
# (§6) [(Ti−Tz)/Tz]×100 for concentrations for which Ti<Tz.
# (§7) Three dose response parameters were calculated for each compound. Growth inhibition of 50% (GI50) was calculated from [(Ti−Tz)/(C−Tz)]×100=50, which is the compound concentration resulting in a 50% reduction in the net protein increase (as measured by SRB staining) in control cells during the compound incubation. The compound concentration resulting in total growth inhibition (TGI) was calculated from Ti=Tz. The LC50 (concentration of compound resulting in a 50% reduction in the measured protein at the end of the compound treatment as compared to that at the beginning) indicating a net loss of cells following treatment was calculated from [(Ti−Tz)/Tz]×100=−50. Values were calculated for each of these three parameters if the level of activity was reached; however, if the effect was not reached or was exceeded, the value for that parameter was expressed as greater or less than the maximum or minimum concentration tested.
# 786-0 = assay: NCI-60 screen, Renal Cancer; assay type: cell-based, human; details: 10 μM
# Experimental: as §2, §3, §4, §5, §6, §7
# DU-145 = assay: NCI-60 screen, Prostate Cancer; assay type: cell-based, human; details: 10 μM
# Experimental: as §2, §3, §4, §5, §6, §7
# PC-3 = assay: NCI-60 screen, Prostate Cancer; assay type: cell-based, human; details: 10 μM
# Experimental: as §2, §3, §4, §5, §6, §7
# MDA-MB-31/ATCC = assay: NCI-60 screen, Breast Cancer; assay type: cell-based, human; details: 10 μM, MDA-MB-231/ATCC
# Experimental: as §2, §3, §4, §5, §6, §7
# [1] = tested on: S. typhymurium ATTC 29631
# [2] = tested on: 59 different human tumor cell lines; assay: NCI-60 DTP human tumor cell line screen, single concentration, mean over panel; assay type: cell-based; details: single concentration 10 μM, mean over 59 human tumor cell lines; for inhibition at 10 µM: Homo sapiens, read-out: mean growth inhibition; for NCI Screen Mean % Growth: 48 hours, SRB
# Experimental: as §2, §3, §4, §5, §6
# HS 578T = assay: NCI-60 screen, Breast Cancer; assay type: cell-based, human; details: 10 μM
# Experimental: as §2, §3, §4, §5, §6, §7
SMILES,50% lysis (HC50) (human red blood cells) [µg/mL],"IC90 (MCF-7 (ATCC HTB-22); Homo sapiens, MCF7, MCF-7, tumorigenic, 48 hours incubation, XTT) [µg/mL]",Selectivity IC90/IC90 MCF10A (MCF-7 (ATCC HTB-22); MCF-7 versus MCF10A),"IC90 (TMX2-28; Homo sapiens, TMX2-28, tumorigenic, 48 hours incubation, XTT) [µg/mL]",Selectivity IC90/IC90 MCF10A (TMX2-28; TMX2-28 versus MCF10A),IC90 (MCF-10A (ATCC CRL-10317)) [µg/mL],Percent Growth (RPMI-8226) [%],Percent Growth (786-0) [%],Percent Growth (DU-145) [%],Percent Growth (PC-3) [%],Percent Growth (MDA-MB-31/ATCC) [%],potent cytotoxicity against bacteria (concentration) (E. coli D31) [µg/mL],potent cytotoxicity against bacteria (concentration) [1] [µg/mL],inhibition at 10 µM [2] [%],NCI Screen Mean % Growth [2] [%],Percent Growth (HS 578T) [%]
NCCc1cc(Br)cc(C#Cc2cccc(C#Cc3cc(Br)cc(CCN)c3)c2)c1 [Compound A],75,6.3,2,6.3,2,12.5,9.497,−26.78,−83.92,45.26,4.31,0.8 to 1.6,0.8 to 1.6,,,
N=C(N)NCCCCC(=O)Nc1cc(C(F)(F)F)cc(NC(=O)Nc2ccc(NC(=O)Nc3cc(C(F)(F)F)cc(NC(=O)CCCCNC(=N)N)c3OC3CCNC3)cc2)c1OC1CCNC1 (stereo not shown) [Compound B],,,,,,,49.97,58.61,70.36,59.59,73.02,,,> 30,56.58,
N=C(N)NCCCCC(=O)Nc1cc(C(F)(F)F)cc(NC(=O)c2cc(C(=O)Nc3cc(C(F)(F)F)cc(NC(=O)CCCCNC(=N)N)c3SCCN)ncn2)c1SCCN [Compound C],,,,,,,,,62.89,77.68,81.52,,,> 30,43.48,
NCCCc1cccc(-c2ccc3sc4ccc(-c5cccc(CCCN)c5)cc4c3c2)c1 [Compound D],,,,,,,62.06,79.48,55.35,73.6,60.18,,,> 30,67.91,
c1cc(-c2ccc3sc4ccc(-c5ccnc(N6CCNCC6)c5)cc4c3c2)cc(N2CCNCC2)n1 [Compound E],,,,,,,,,−97.96,−85.11,−41.26,,,,,
NCCSc1cc(SCCN)c(C(F)(F)F)cc1NC(=O)c1cc(C(=O)Nc2cc(C(F)(F)F)c(SCCN)cc2SCCN)ncn1 [Compound F],,,,,,,,50.09,51.97,46.61,18.87,,,> 30,41.28,
NCCCc1cccc(-c2ccc3oc4ccc(-c5cccc(CCCN)c5)cc4c3c2)c1 [Compound G],,,,,,,65.28,5.487,−23.65,54.99,37.19,,,> 30,49.56,100.4
